Source: EP4786454A1, “HETEROARYL DERIVATIVE AND USE THEREOF” (priority 2023, dated 2025)

experiment: Stability in liver microsomes (rat); type: in vitro ADME, Sprague-Dawley (SD) rats; conditions: r (SD rat liver microsomes), 0.5 mg/mL, read-out: MMS Clint
Experimental: The purpose of this study was to evaluate the phase I metabolic stability of the assay sample in liver microsomes from CD-1 mice, Sprague-Dawley (SD) rats, beagle dogs, cynomolgus monkeys, and human.
The animal and human liver microsomes used in this assay system were purchased from Xenotech, Corning, or other qualified suppliers.
Preparation of buffer: 73.21 g of potassium phosphate dibasic trihydrate and 10.78 g of potassium dihydrogen phosphate were dissolved in 4000 mL of ultrapure water. The pH of the solution was adjusted to the range of 7.40 ± 0.10 using 10.0% phosphoric acid or 1.00 M potassium hydroxide. Its final concentration was 100 mM.
Preparation of working solutions: An assay sample powder was prepared into a 10.0 mM stock solution with DMSO, and then further diluted with a suitable organic solvent. The control compounds testosterone, diclofenac, and propafenone were prepared into 10.0 mM stock solutions using DMSO, and then further diluted with a suitable organic solvent.
Preparation of liver microsome solution: Microsomes of various species were diluted with 100 mM potassium phosphate buffer to a working solution of 0.56 mg/mL. The final concentration of microsomes in the reaction system was 0.500 mg/mL. Detailed preparation procedures were described in the experimental records.
Preparation of reduced nicotinamide adenine dinucleotide phosphate (NADPH) solution: An appropriate amount of reduced nicotinamide adenine dinucleotide phosphate was dissolved in magnesium chloride solution, and the mixture was shaken to mix well. The final concentrations in the reaction system were 1.00 mM NADPH and 1.00 mM magnesium chloride, respectively. Detailed preparation procedures were described in the experimental records.
Preparation of stop solution: The stop solution was prepared using acetonitrile containing internal standards (tolbutamide and labetalol). The prepared stop solution was stored at 2.0 to 8.0 °C in a refrigerator. Detailed preparation procedures were described in the experimental records. […]

| SMILES | CLint scaled at 1 µM [mL/min/kg] |
| --- | --- |
| CC(C)(C)CC(=O)Nc1nc2c(F)cc(C#N)cn2c1C1=CCCC1 [Compound 3] | 123 |
| CC(C)(C)CC(=O)Nc1nc2c(F)cc(C#N)cn2c1-c1ccc(OC(F)(F)F)cc1 [Compound 1] | 193 |
| CC(C)(C)CC(=O)Nc1nc2c(F)cc(C#N)cn2c1C12CC(C1)C2 [Compound 5] | < 17 |
